Patent publication EP4745135A1 (Gluetacs Therapeutics (Shanghai) Co., Ltd., priority 2023, dated 2025)

Tests used:
[1] = target: T1, CK1α (Homo sapiens, UniProt P48729+Q96SW2); assay: Western blot, degradation of substrate protein in hPBMCs; type: cell-based; conditions: Western blot, 24 hours of compound treatment, compounds tested at 50 nM and 500 nM (concentration for the table not stated)
T1 construct: effects of the compounds of the present disclosure on the expression of target proteins in cells; endogenous in cells; host or cells: human PBMCs (Milecell Biotechnologies)
T1 sequence (P48729 whole entry): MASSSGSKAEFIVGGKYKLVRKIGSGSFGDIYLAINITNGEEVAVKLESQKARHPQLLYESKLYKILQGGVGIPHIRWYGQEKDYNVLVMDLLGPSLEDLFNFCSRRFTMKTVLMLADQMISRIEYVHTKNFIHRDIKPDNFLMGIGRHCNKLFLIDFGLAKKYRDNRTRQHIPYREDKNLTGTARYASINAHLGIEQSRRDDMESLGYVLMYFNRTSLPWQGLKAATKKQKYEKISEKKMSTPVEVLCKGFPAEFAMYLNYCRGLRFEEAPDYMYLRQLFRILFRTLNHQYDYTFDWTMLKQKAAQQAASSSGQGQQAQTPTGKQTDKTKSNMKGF
T1 sequence (Q96SW2 whole entry): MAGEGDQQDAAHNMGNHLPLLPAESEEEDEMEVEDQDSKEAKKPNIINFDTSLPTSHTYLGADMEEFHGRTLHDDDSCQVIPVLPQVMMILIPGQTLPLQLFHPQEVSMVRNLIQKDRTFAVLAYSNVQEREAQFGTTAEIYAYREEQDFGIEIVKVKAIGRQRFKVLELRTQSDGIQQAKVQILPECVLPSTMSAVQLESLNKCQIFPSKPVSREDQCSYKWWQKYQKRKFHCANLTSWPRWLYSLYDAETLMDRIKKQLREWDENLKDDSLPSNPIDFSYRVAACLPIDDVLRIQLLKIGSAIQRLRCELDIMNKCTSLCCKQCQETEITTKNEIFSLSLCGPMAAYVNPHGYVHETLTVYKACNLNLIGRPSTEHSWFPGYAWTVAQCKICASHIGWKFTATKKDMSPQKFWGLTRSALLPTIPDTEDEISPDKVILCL
T1 sequence (Q16531 whole entry partner): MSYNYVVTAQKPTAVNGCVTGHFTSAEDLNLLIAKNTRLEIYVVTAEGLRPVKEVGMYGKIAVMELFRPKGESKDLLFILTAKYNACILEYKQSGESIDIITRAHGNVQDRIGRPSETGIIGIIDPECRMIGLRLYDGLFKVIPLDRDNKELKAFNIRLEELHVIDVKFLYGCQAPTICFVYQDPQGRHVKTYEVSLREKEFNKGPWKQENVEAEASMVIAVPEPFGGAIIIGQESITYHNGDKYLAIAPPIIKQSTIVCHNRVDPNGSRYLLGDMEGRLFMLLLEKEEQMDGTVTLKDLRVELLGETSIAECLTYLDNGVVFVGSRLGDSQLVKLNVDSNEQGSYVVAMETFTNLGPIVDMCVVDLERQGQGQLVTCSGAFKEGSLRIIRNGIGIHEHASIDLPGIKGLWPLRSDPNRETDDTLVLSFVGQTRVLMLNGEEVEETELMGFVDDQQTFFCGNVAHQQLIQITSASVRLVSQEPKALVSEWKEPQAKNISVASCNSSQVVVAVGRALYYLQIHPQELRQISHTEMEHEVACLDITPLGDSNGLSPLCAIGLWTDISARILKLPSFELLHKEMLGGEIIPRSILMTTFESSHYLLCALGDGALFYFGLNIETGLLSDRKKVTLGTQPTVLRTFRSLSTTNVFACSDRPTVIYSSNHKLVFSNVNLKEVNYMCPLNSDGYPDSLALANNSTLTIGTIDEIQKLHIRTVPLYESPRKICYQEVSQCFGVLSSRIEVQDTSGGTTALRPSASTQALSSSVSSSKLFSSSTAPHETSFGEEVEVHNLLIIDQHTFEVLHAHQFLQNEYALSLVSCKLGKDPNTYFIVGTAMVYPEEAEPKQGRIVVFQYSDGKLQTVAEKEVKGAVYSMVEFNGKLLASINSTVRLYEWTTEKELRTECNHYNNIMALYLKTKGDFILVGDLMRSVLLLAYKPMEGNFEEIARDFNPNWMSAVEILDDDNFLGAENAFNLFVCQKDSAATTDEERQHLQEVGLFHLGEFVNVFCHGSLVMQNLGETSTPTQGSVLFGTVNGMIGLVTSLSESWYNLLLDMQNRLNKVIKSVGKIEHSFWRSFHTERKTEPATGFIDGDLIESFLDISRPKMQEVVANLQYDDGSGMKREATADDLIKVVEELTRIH

[2] = target: T2, IKZF1 (Homo sapiens, UniProt Q13422+Q96SW2); assay: as above; type: cell-based; conditions: Western blot, 24 hours of compound treatment, compounds tested at 50 nM and 500 nM (concentration for the table not stated)
T2 construct: effects of the compounds of the present disclosure on the expression of target proteins in cells; endogenous in cells; host or cells: human PBMCs (Milecell Biotechnologies)
T2 sequence (Q13422 whole entry): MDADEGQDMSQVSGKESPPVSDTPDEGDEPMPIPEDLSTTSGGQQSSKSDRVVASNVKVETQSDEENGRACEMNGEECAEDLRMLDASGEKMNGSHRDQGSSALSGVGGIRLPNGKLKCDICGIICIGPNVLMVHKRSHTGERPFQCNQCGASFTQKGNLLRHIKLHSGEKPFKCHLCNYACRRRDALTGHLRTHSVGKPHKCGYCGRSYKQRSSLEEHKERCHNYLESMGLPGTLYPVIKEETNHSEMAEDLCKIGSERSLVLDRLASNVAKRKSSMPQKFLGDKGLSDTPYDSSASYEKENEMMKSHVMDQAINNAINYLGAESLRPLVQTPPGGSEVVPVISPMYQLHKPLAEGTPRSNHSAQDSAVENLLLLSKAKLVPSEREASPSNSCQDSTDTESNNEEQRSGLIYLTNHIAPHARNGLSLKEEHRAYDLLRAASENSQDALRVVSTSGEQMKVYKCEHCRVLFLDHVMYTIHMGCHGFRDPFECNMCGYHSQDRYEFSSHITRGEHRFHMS
T2 sequence (Q96SW2 whole entry): as the sequence (Q96SW2 whole entry) above
T2 sequence (Q16531 whole entry partner): as the sequence (Q16531 whole entry partner) above

[3] = target: T3, IKZF2 (Homo sapiens, UniProt Q96SW2+Q9UKS7); assay: as above; type: cell-based; conditions: Western blot, 24 hours of compound treatment, compounds tested at 50 nM and 500 nM (concentration for the table not stated)
T3 construct: effects of the compounds of the present disclosure on the expression of target proteins in cells; endogenous in cells; host or cells: human PBMCs (Milecell Biotechnologies)
T3 sequence (Q9UKS7 whole entry): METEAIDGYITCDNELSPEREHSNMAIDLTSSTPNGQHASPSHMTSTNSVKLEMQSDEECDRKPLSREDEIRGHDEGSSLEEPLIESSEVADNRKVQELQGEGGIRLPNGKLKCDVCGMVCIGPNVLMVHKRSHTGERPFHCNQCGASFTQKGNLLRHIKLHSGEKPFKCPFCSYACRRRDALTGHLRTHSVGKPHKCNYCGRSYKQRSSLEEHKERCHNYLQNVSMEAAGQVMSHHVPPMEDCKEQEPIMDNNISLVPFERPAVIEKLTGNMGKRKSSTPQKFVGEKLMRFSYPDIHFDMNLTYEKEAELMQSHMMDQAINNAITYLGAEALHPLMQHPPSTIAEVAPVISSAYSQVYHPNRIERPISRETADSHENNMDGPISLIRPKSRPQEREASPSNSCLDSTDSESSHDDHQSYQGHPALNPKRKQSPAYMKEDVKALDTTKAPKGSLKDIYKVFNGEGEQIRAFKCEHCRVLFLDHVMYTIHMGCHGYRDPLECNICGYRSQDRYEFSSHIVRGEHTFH
T3 sequence (Q96SW2 whole entry): as the sequence (Q96SW2 whole entry) above
T3 sequence (Q16531 whole entry partner): as the sequence (Q16531 whole entry partner) above

[4] = target: T4, IKZF3 (Homo sapiens, UniProt Q96SW2+Q9UKT9); assay: as above; type: cell-based; conditions: Western blot, 24 hours of compound treatment, compounds tested at 50 nM and 500 nM (concentration for the table not stated)
T4 construct: effects of the compounds of the present disclosure on the expression of target proteins in cells; endogenous in cells; host or cells: human PBMCs (Milecell Biotechnologies)
T4 sequence (Q9UKT9 whole entry): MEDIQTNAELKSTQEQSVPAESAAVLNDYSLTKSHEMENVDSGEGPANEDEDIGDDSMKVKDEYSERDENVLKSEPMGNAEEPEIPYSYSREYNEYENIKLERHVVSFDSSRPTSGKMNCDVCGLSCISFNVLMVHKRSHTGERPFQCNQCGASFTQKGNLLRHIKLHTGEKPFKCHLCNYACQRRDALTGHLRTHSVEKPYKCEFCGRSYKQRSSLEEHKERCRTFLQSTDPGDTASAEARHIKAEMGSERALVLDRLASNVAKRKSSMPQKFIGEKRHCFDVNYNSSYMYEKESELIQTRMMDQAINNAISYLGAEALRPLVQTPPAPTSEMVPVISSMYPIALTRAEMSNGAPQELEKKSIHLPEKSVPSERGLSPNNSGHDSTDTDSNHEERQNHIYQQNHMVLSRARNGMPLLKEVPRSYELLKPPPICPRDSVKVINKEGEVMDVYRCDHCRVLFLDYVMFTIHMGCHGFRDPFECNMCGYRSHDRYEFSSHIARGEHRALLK
T4 sequence (Q96SW2 whole entry): as the sequence (Q96SW2 whole entry) above
T4 sequence (Q16531 whole entry partner): as the sequence (Q16531 whole entry partner) above

[5] = target: T5, WEE1 (Homo sapiens, UniProt P30291+Q96SW2); assay: as above; type: cell-based; conditions: Western blot, 24 hours of compound treatment, compounds tested at 50 nM and 500 nM (concentration for the table not stated)
T5 construct: effects of the compounds of the present disclosure on the expression of target proteins in cells; endogenous in cells; host or cells: human PBMCs (Milecell Biotechnologies)
T5 sequence (P30291 whole entry): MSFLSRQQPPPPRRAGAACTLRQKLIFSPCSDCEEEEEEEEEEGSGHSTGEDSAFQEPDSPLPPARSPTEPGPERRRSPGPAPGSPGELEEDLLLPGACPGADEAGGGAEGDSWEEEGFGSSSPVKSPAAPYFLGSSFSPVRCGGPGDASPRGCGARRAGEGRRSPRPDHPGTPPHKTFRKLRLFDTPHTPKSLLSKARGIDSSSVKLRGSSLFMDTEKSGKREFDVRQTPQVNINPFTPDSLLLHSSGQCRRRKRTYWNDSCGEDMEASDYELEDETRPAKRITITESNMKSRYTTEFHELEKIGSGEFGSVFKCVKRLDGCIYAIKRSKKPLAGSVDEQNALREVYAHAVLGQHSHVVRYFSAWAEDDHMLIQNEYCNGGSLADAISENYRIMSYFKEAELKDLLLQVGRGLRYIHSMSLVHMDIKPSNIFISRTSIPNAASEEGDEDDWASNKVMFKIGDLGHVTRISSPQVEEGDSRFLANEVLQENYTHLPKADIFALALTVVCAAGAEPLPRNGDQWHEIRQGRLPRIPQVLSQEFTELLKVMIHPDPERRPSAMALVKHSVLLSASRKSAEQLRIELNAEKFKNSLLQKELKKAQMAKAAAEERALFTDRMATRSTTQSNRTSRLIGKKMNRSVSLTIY
T5 sequence (Q96SW2 whole entry): as the sequence (Q96SW2 whole entry) above
T5 sequence (Q16531 whole entry partner): as the sequence (Q16531 whole entry partner) above

[6] = test system: GSPT1; assay: as above; type: cell-based, Human; conditions: Western blot, 24 hours of compound treatment, compounds tested at 50 nM and 500 nM (concentration for the table not stated)
[7] = target: T6, human Cereblon WT GST-tagged protein (Homo sapiens, UniProt Q96SW2); assay: CRBN-binding affinity, HTRF (CEREBLON BINDING kit); conditions: for inhibition at 0.5 µM: read-out: Inhibition Rate at 0.5 µM (%); for inhibition at 2 µM: read-out: Inhibition Rate at 2 µM (%)
T6 construct: purchased CISBIO 64BDCRBNPEH
T6 sequence (Q96SW2 whole entry): as the sequence (Q96SW2 whole entry) above

[8] = test system: Human myeloid monocytic leukemia cell (MV-4-11); assay: Tumor cell proliferation inhibition (CellTiter-Meiluncell luminescent cell viability assay); conditions: MV4-11, 96 h; for inhibition at 0.01 µM: read-out: Inhibition Rate at 10 nM (%); for inhibition at 0.5 µM: read-out: Inhibition Rate at 500 nM (%)
[9] = test system: Human acute myeloid leukemia cell line: Kasumi-1; assay: as above; conditions: Kasumi 1, 96 h; for inhibition at 0.01 µM: read-out: Inhibition Rate at 10 nM (%); for inhibition at 0.5 µM: read-out: Inhibition Rate at 500 nM (%)
[10] = test system: Human T lymphocytic leukemia cell line: Jurkat; assay: as above; conditions: 96 h; for inhibition at 0.01 µM: read-out: Inhibition Rate at 10 nM (%); for inhibition at 0.5 µM: read-out: Inhibition Rate at 500 nM (%)
[11] = test system: Human multiple myeloma cell (MM.1S); assay: as above; conditions: Homo sapiens, MM1.S, 96 h; for inhibition at 0.01 µM: read-out: Inhibition Rate at 10 nM (%); for inhibition at 0.5 µM: read-out: Inhibition Rate at 500 nM (%)
[12] = test system: Human breast cancer cell (MCF-7); assay: as above; conditions: MCF7, 96 h
[13] = test system: Human acute T lymphocytic leukemia cell (Molt4); assay: as above; conditions: MOLT-4, 96 h
Method: (§1) The tumor cells used herein were cultured in a cell culture medium listed in table 2 at 37°C in an incubator with 5% CO2. Prior to experimentation, all cell lines used were correctly identified by STR profiling, and tested negative for mycoplasma contamination using a mycoplasma detection kit through routine screenings.
(§2) The IC50 values of the compounds of the present disclosure (including the compounds in Table 1 and Examples) were determined using the CellTiter-Meiluncell Luminescent Cell Viability Assay Kit from Dalian Meilun Biotech Co., Ltd. The detailed procedure is as follows: Tumor cells were seeded in 96-well cell culture plates at the densities specified in Table 3. On the following day, the test compounds of the present disclosure were subjected to serial dilution. The dilution can be performed according to one of the following two methods: • (1) The first dilution method: The test compounds of the present disclosure (including the compounds in Table 1 and Examples) were subjected to 5-fold serial dilutions starting from a highest concentration of 2000 µM, resulting in a total of 9 concentrations from high to low (2000, 400, 80, 16, 3.2, 0.64, 0.128, 0.0256, 0.00512 µM). Subsequently, 0.5 µL of the test compound dilution was transferred into the 96-well plate containing the cells, with each well containing 100 µL of cell culture medium. […] Into the 96-well plate, the diluted test compounds and corresponding detection reagents were added, resulting in final test compound concentrations of 500 nM and 10 nM, respectively. The experimental procedure is described below using the diluted 2 µM test compound as an example.
(§3) 0.5 µL of the aforementioned diluted compound of the present disclosure (including the compounds in Table 1 and Examples) was added to the seeded cells in 100 µL of medium, yielding a final test compound concentration of 10 nM. After the cells were treated with the compounds of the present disclosure for a specified period, the cell viability assay reagent was added to the culture medium according to the kit's instructions to determine cell viability. […] All controls were treated using the same procedure as the compounds of the present disclosure. The growth inhibition curves for the compounds of the present disclosure were plotted using Prism GraphPad software, and the IC50 values were calculated therefrom.

[14] = test system: Human multiple myeloma peripheral blood B lymphocyte cell (RPMI-8226); assay: as above; conditions: RPMI-8226, 96 h
Method: as §1, §2, §3

[15] = test system: Human T cell acute lymphoblastic leukemia cell (CCRF-CEM); assay: as above; conditions: 96 h
[16] = read-out: Inhibition Rate at 10 nM (%)
[17] = read-out: Inhibition Rate at 500 nM (%)

| Compound | CK1α substrate protein remaining % [1] | IKZF 1 substrate protein remaining % [2] | IKZF2 substrate protein remaining % [3] | IKZF3 substrate protein remaining % [4] | Wee1 substrate protein remaining % [5] | GSPT1 substrate protein remaining % [6] | inhibition at 0.5 µM [7] [%] | inhibition at 2 µM [7] [%] | inhibition at 0.01 µM [8] [%] | inhibition at 0.5 µM [8] [%] | inhibition at 0.01 µM [9] [%] | inhibition at 0.5 µM [9] [%] | inhibition at 0.01 µM [10] [%] | inhibition at 0.5 µM [10] [%] | also measured |
| --- | --- | --- | --- | --- | --- | --- | --- | --- | --- | --- | --- | --- | --- | --- | --- |
| O=C1CCC(N2Cc3c(CN4CCN(c5cccc(F)c5F)CC4)cccc3C2=S)C(=O)N1 (stereo not shown) [GT-08268, 3-(4-((4-(2,3-difluorophenyl)piperazin-1-yl)methyl)-1-thioxoisoindolin-2-yl)piperidine-2,6-dione] | B (80%< substrate protein remaining %≤ 100%) | B (80%< substrate protein remaining %≤ 100%) | B (80%< substrate protein remaining %≤ 100%) | B (80%< substrate protein remaining %≤ 100%) | A (0% ≤ substrate protein remaining % ≤ 80%) | A (0% ≤ substrate protein remaining % ≤ 80%) | 40 to 53 | 60 to 80 | 60 to 80 | 60 to 80 | 50 to 60 | 50 to 60 | – | – | – |
| O=C1CCC(N2Cc3c(CN4CCN(c5cccc(F)c5)CC4)cccc3C2=S)C(=O)N1 (stereo not shown) [GT-08263, 3-(4-((4-(3-fluorophenyl)piperazin-1-yl)methyl)-1-thioxoisoindolin-2-yl)piperidine-2,6-dione] | A (0% ≤ substrate protein remaining % ≤ 80%) | B (80%< substrate protein remaining %≤ 100%) | B (80%< substrate protein remaining %≤ 100%) | B (80%< substrate protein remaining %≤ 100%) | A (0% ≤ substrate protein remaining % ≤ 80%) | A (0% ≤ substrate protein remaining % ≤ 80%) | 53 to 60 | 80 to 100 | 60 to 80 | 80 to 100 | 50 to 60 | 60 to 70 | 20 to 30 | 30 to 40 | – |
| O=C1CCC(N2Cc3c(CN4CCN(c5ccc(Cl)cc5)CC4)cccc3C2=S)C(=O)N1 (stereo not shown) [GT-08266, 3-(4-((4-(4-chlorophenyl)piperazin-1-yl)methyl)-1-thioxoisoindolin-2-yl)piperidine-2,6-dione] | B (80%< substrate protein remaining %≤ 100%) | B (80%< substrate protein remaining %≤ 100%) | B (80%< substrate protein remaining %≤ 100%) | B (80%< substrate protein remaining %≤ 100%) | A (0% ≤ substrate protein remaining % ≤ 80%) | A (0% ≤ substrate protein remaining % ≤ 80%) | 30 to 40 | 60 to 80 | 60 to 80 | 80 to 100 | 50 to 60 | 50 to 60 | – | – | inhibition at 0.01 µM [11]: 40 to 50%; inhibition at 0.5 µM [11]: 50 to 60%; inhibition at 0.01 µM [12, 16]: 40 to 50%; inhibition at 0.5 µM [12, 17]: 40 to 50% |
| CC1(C)CCC(CN2CC3CCC(C2)N3Cc2cccc3c2CN(C2CCC(=O)NC2=O)C3=S)=C(c2ccc(Cl)cc2)C1 (stereo not shown) [GT-08292, 3-(4-((3-((4'-chloro-5,5-dimethyl-3,4,5,6-tetrahydro-[1,1'-biphenyl]-2-yl)methyl)-3,8-diazabicyclo[3.2.1]octan-8-yl)methyl)-1-thioxoisoindolin-2-yl)piperidine-2,6-dione] | A (0% ≤ substrate protein remaining % ≤ 80%) | B (80%< substrate protein remaining %≤ 100%) | B (80%< substrate protein remaining %≤ 100%) | B (80%< substrate protein remaining %≤ 100%) | A (0% ≤ substrate protein remaining % ≤ 80%) | A (0% ≤ substrate protein remaining % ≤ 80%) | 30 to 40 | 60 to 80 | 60 to 80 | 60 to 80 | 60 to 70 | 50 to 60 | 30 to 40 | 30 to 40 | – |
| O=C1CCC(N2Cc3cc(CN4CCN(c5cccc(F)c5F)CC4)ccc3C2=S)C(=O)N1 (stereo not shown) [GT-08210, 3-(5-((4-(2,3-difluorophenyl)piperazin-1-yl)methyl)-1-thioxoisoindolin-2-yl)piperidine-2,6-dione] | B (80%< substrate protein remaining %≤ 100%) | A (0% ≤ substrate protein remaining % ≤ 80%) | A (0% ≤ substrate protein remaining % ≤ 80%) | A (0% ≤ substrate protein remaining % ≤ 80%) | A (0% ≤ substrate protein remaining % ≤ 80%) | A (0% ≤ substrate protein remaining % ≤ 80%) | 60 to 80 | 80 to 100 | 5 to 10 | 80 to 100 | 20 to 30 | 80 to 100 | 20 to 30 | 60 to 70 | inhibition at 0.01 µM [11]: 20 to 30%; inhibition at 0.5 µM [11]: 80 to 100%; inhibition at 0.01 µM [13, 16]: 10 to 20%; inhibition at 0.5 µM [13, 17]: 80 to 100% |
| O=C1CCC(N2Cc3c(CN4CC=C(c5cccc(F)c5Cl)CC4)cccc3C2=S)C(=O)N1 (stereo not shown) [GT-08301, 3-(4-((4-(2-chloro-3-fluorophenyl)-3,6-dihydropyridin-1(2H)-yl)methyl)-1-thioxoisoindolin-2-yl)piperidine-2,6-dione] | A (0% ≤ substrate protein remaining % ≤ 80%) | B (80%< substrate protein remaining %≤ 100%) | B (80%< substrate protein remaining %≤ 100%) | B (80%< substrate protein remaining %≤ 100%) | A (0% ≤ substrate protein remaining % ≤ 80%) | A (0% ≤ substrate protein remaining % ≤ 80%) | – | – | 40 to 60 | 40 to 60 | 50 to 60 | 50 to 60 | 20 to 30 | 30 to 40 | – |
| O=C1CCC(N2Cc3cc(CN4CCN(c5cccc(Cl)c5Cl)CC4)ccc3C2=S)C(=O)N1 (stereo not shown) [GT-04474, 3-(5-((4-(2,3-dichlorophenyl)piperazin-1-yl)methyl)-1-thioxoisoindolin-2-yl)piperidine-2,6-dione] | B (80%< substrate protein remaining %≤ 100%) | A (0% ≤ substrate protein remaining % ≤ 80%) | A (0% ≤ substrate protein remaining % ≤ 80%) | A (0% ≤ substrate protein remaining % ≤ 80%) | A (0% ≤ substrate protein remaining % ≤ 80%) | A (0% ≤ substrate protein remaining % ≤ 80%) | – | – | – | – | – | – | – | – | IC50 ([7]; CRBN binding, HTRF, 3 hours at room temperature, read-out: HTRF IC50): 0.5 to 1 µM; IC50 ([10]; read-out: Inhibitory activity (IC50, nM) on tumor cell proliferation, Jurkat): 50 to 100 nM |
| COc1ccccc1N1CCN(Cc2cccc3c2CN(C2CCC(=O)NC2=O)C3=S)CC1 (stereo not shown) [GT-08260, 3-(4-((4-(2-methoxyphenyl)piperazin-1-yl)methyl)-1-thioxoisoindolin-2-yl)piperidine-2,6-dione] | B (80%< substrate protein remaining %≤ 100%) | B (80%< substrate protein remaining %≤ 100%) | B (80%< substrate protein remaining %≤ 100%) | B (80%< substrate protein remaining %≤ 100%) | A (0% ≤ substrate protein remaining % ≤ 80%) | A (0% ≤ substrate protein remaining % ≤ 80%) | 60 to 80 | 80 to 100 | – | – | – | – | – | – | inhibition at 0.01 µM [14, 16]: 70 to 80%; inhibition at 0.5 µM [14, 17]: 70 to 80%; inhibition at 0.01 µM [15, 16]: 20 to 30%; inhibition at 0.5 µM [15, 17]: 40 to 50% |
